{
  "source": "paper PMC9505031",
  "about": "“Implementation of QbD Approach to the Development of Chromatographic Methods for the Determination of Complete Impurity Profile of Substance on the Preclinical and Clinical Step of Drug Discovery Studies” (International Journal of Molecular Sciences, 2022)",
  "key": {"[1]": {"test": "Chromatographic hydrophobicity index CHI logD determination (UltraCore SuperC18 column)", "assay_type": "physicochemical", "description": "Due to this observation and to better characterise elution conditions for method development, it was decided to determine the chromatographic hydrophobicity index CHI logD of CPL409116 and its impurities by the methodology described by Valko et al.. Chromatographic hydrophobicity index CHI logD has been originally used for high-throughput physicochemical property profiling for rational drug design, where determined values strongly correlate to lipophilicity (logP and/or logD) of molecules.\nOn a basis of determining lipophilicity described by CHI logD at pH 2.6, 7.4 and 10.5 on ACE Ultracore SuperC18 column more valuable data were obtained in a contest of chromatography interactions molecules with stationary phase extended with their acid-base properties (Table 1). Particularly, strong pH dependence on retention factors has been observed for JAK ImpC and also for JAK07, JAK08, and JAK09. Greater differences and a wider range of CHI logD values, calculated on a base of peaks retention times of compounds, in the lower pH range than in the pH 7.4–10.5 range have been observed. The use of mobile phases with a lower pH would allow obtaining higher chromatographic resolutions and higher selectivity of the analytical method.\nFor the CHI logD determination, separate solutions of all the tested sample were prepared at a concentration of 1 mM in DMSO. Reference mix solutions have a concentration of 1 mM in DMSO.\nThe CHI logD for JAK01 and its impurities was determined on an UltraCore 2.5 SuperC18 (2.1 × 50 mm, 2.5 µm, ACE) column with eluent A consisting of formic acid (10 mM, pH 2.6), and ammonium acetate (50 mM) buffers with different concentrations of additives were used to prepare buffer solutions of 7.4, and 10.5, and eluent B consisted ACN [58]."}, "[2]": {"test": "Solubility in aqueous solutions", "assay_type": "physicochemical"}},
  "note": "Like-named read-outs stand apart in the source and are kept apart here.",
  "data": [
    {"smiles": "COc1cccc(-c2cc3ncc(C(N)=O)c(N[C@@H]4CCN(c5ccc(C#N)nn5)CC4(C)C)n3n2)n1", "note": "[CPL409116]", "values": [
      {"measurement": "chromatographic logD", "setting": "[1]; pH 2.6, 10 mM formic acid/ACN, read-out: CHILogD pH 2.6", "result": 3.51},
      {"measurement": "chromatographic logD", "setting": "[1]; pH 7.4, 50 mM ammonium acetate/ACN, read-out: CHILogD pH 7.4", "result": 3.09},
      {"measurement": "chromatographic logD", "setting": "[1]; pH 10.5, 50 mM ammonium acetate/ACN, read-out: CHILogD pH 10.5", "result": 3.05},
      {"measurement": "Solubility in aqueous solutions", "setting": "[2]; aqueous solutions", "result": "practically insoluble"},
      {"measurement": "solubility", "setting": "[2]; pH 7.4, aqueous buffer, phosphate buffer with a pH of 7.4", "result": "< 0.1", "unit": "µg/mL"}
    ]}
  ]
}
